Reference: patent US8609730B2, “Rel inhibitors and methods of use thereof” (The Trustees of the University of Pennsylvania, priority 2008, dated 2013)
Entries after “also recorded” stand apart in the source; their conditions may differ.

How the values were obtained:
[1] = tested on: spleen cells of B6 mice; assay: Cytokine production by spleen cells treated with anti-CD3 antibody (ELISA); type: cell-based
Protocol: FIG. 1. FIG. 1A depicts a graph showing the IL-2 inhibitory effect of R13D (compound III), R13096 (compound CXX), and R13015 (compound VI). FIG. 1B depicts a graph showing the IFN-gamma inhibitory effect of R13D (compound III), R13096 (compound CXX), and R13015 (compound VI).
FIG. 3. Depicts a graph showing Splenocytes that were cultured under various conditions as indicated on the X-axis. Twenty-four hours later, cytokines in the supernatant were determined by ELISA (R13D is compound III, R31C. is compound IV, R32D is compound VII).
To determine whether these inhibitors are effective in suppressing cytokine production by inflammatory cells, spleen cells of B6 mice were treated with anti-CD3 antibody (to activate the inflammatory cells) with or without different concentrations of the compounds. […] As further shown in FIG. 1 IL-2 and IFN-gamma were inhibited by […], and compound VI at concentrations ranging from 5-20 μM.

[2] = tested on: splenocytes or purified CD4+ splenic T cells of C57BL/6 mice; assay: Cell-based assay for testing c-Rel blockers: cytokine expression with anti-CD3 and anti-CD28; design: IL-4 in culture: dose or concentration left out as unconfirmed; conditions: for IL-2 production by T cells (IL-2 release assay, secondary screening): hits of virtual screening
Protocol: (§1) Splenocytes of C57BL/6 mice (n=4) were cultured with or without plate-bound anti-CD3 (1 ug/ml) and soluble anti-CD28 (2 ug/ml), in the presence of various concentrations of R96 as indicated. R96 was dissolved in PBS, and the amount of the PBS added to each culture was identical ([…]). Twenty-four hours later, cytokines in the supernatant were determined by ELISA (A-C). The percentages of dead cells in the culture were determined by flow cytometry following staining cells with annexin-V and propidium iodide (PI)(D).
To design drugs that could disable human c-Rel binding to DNA (therefore blocking the biological activity of c-Rel), chicken c-Rel 3-D model was first humanized by replacing chicken residues with their human counterparts. The model was then minimized using the Insight II software (Accelrys, Inc). The minimized model was used to discover small molecule inhibitors that can interfere with the residues in loops L1 and L2. A small druggable cavity was identified using programs available in Insight II. This structure was designated as the L1 cavity. The L1 cavity is formed by loops L1, L2 and a helix. Residues Arg 21, Cys 26, Glu 27, Lys 110 and Lys 111 form the mouth of the L1 cavity (FIG. 2). A virtual screening approach was used to identify small molecule inhibitors that block DNA binding to the L1 cavity by perturbing these key contact residues as we previously described. From ˜50,000 drug-like molecules of available chemical libraries, about 100 hits were identified. […] These compounds fall into two structural classes, the phenylcarbamates (FIG. 2C) and sulfanyl-methaniminium-based compounds, represented by R13:
To determine whether the c-Rel blockers identified above are effective in regulating inflammatory cell function, splenocytes or purified CD4+ splenic T cells of C57BU6 mice were treated with anti-CD3 and anti-CD28 in the presence of increasing concentrations of the compounds. Cytokine expression was determined by ELISA, flow cytometry or real-time PCR, whereas CD4 expression and cell survival were determined by flow cytometry alone. […]

[3] = tested on: C57BL/6 mice immunized to induce EAE; assay: EAE induced with MOG38-50 peptide, prevention and treatment; type: in vivo; conditions: for treating ongoing EAE (after onset): i.p. daily after onset, 100 ug/mouse/injection
[4] = tested on: splenocytes or CD4+ T cells of C57BL/6 mice; assay: Cell survival / dead cells by flow cytometry (annexin-V and propidium iodide); type: cell-based; design: survival of CD4+ T cells or total splenocytes: dose or concentration left out as unconfirmed
Protocol: as §1
To determine whether the c-Rel blockers identified above are effective in regulating inflammatory cell function, splenocytes or purified CD4+ splenic T cells of C57BU6 mice were treated with anti-CD3 and anti-CD28 in the presence of increasing concentrations of the compounds. Cytokine expression was determined by ELISA, flow cytometry or real-time PCR, whereas CD4 expression and cell survival were determined by flow cytometry alone. […] The IC50 of R96 for IL-2 inhibition is […]. […] Because Th1 cytokine IFN-g inhibits the activity of Th2 cells, the increased IL-4 in cultures containing […] R96 could be due to the reduced IFN-g in the culture. […] In fact, c-Rel-deficient mice have reduced but not increased IgG1, IgG3 and IgE production.

[5] = FIG. 1, concentrations ranging from 5-20 μM
[6] = anti-CD3 treated spleen cells, 24 h, FIG. 3

SMILES	IFN-gamma inhibition [1, 5]	IL-2 inhibition [1, 5]	Interleukin (IL)-2 production [1, 6]	interferon-gamma production [1, 6]	IL-2 production by T cells (IL-2 release assay, secondary screening) [2]	treating ongoing EAE (after onset) [3]	preventing EAE (prophylaxis) ([3]; i.p. daily from day 1 to day 13, 100 ug/mouse/injection (100 mg))	IL-4 in culture ([2]; cultures containing R96)	survival of CD4+ T cells or total splenocytes ([4]; highest concentration tested)	percentage of annexin-V+ and PI+ cells (dead cells) ([4]; various concentrations, 24 h)	mean disease score ([3]; seven days into the treatment after onset, FIG. 5C, control 1.83±0.16, p<0.001)
CC(C)(C)c1cc(NC(=O)/C(C#N)=C/c2cccc(Cl)c2Cl)c(C(N)=O)s1 [compound V]	inhibited	inhibited									
O=C(Nc1ccccc1)OCc1nccn1Cc1ccc(Cl)cc1 [R13]			significantly inhibited	significantly inhibited	significantly inhibited	statistically significant; also recorded: significantly ameliorated	statistically significant				
Br.N#Cc1ccc(CSC(=N)Nc2ccccc2)cc1 [R96]					most potent	statistically significant; also recorded: significantly ameliorated		increased	does not significantly affect	No significant differences	0.75±0.43
